According to patent US20090253654A1 (priority 2005, published 2009):
Values belong to the compound of their own block, whether it stands above or below them.

Columns and labels:
in vivo = conditions: for Co (Brain), highest concentration achieved in mouse brain: i.v. injection of 3 mg/kg; for Kp: in vivo
Experimental: FIG. 5: Pharmacokinetics of pro-galantamine Gln-1062 (3 mg/kg) in the mouse. […] FIG. 5b is an excerpt (“zoom”) of FIG. 5a, showing the concentration range between 0.00 and 1.00 μg/g (substance/body weight) more in detail.
Co is the highest pro-galantamine concentration (ng/ml) achieved in mouse brain after i.v. injection of 3 mg/kg of pro-galantamine. R-Pro is the brain-to-blood concentration ratio of pro-galantamine, R-Gal that of galantamine under these experimental conditions. For comparison, Co and R-Gal are also provided for i.v. injection of the same amount of galantamine.
Determination of the pharmacokinetic profiles of Gln-1062 and its cleavage product galantamine in blood and brain. Determine the brain-to-blood concentration ratios of Gln-1062 and its cleavage product galantamine, and assess the blood-brain barrier penetration capacities.
Analytical method for estimation of Gln-1062 was evaluated for its linearity, precision & accuracy and recovery in SAM blood and brain homogenate using LC/MS/MS.
Blood samples were collected from the retro-orbital plexus. 0.5 ml of blood was collected into a pre-labeled polypropylene micro centrifuge tube containing sodium citrate as the anticoagulant, and kept on ice.
Immediately after blood withdrawal, brain was perfused with phosphate buffer saline (pH 7.4), removed and frozen on dry ice.
Brain samples were thawed on ice and weighed. n appropriate volume ice cold homogenizing media (methanol:water::20:80,v/v) added. n ice, homogenized the brain sample with the polytron homogenizer and make up the volume with homogenizing media to get 1 gm of brain per 4 mL of homogenate. after homogenizing, immediately freezed the brain homogenate samples at −80° C. until analysis.

brain cholinesterase = target: T1, brain cholinesterase (Mus musculus, UniProt P21836); format: biochemical; conditions: mouse brain homogenate, 200 μM acetylthiocholine; pro-galantamines up to 50 μM
T1 construct: from tissue; host or cells: mouse brain homogenate
T1 sequence (P21836 32-614): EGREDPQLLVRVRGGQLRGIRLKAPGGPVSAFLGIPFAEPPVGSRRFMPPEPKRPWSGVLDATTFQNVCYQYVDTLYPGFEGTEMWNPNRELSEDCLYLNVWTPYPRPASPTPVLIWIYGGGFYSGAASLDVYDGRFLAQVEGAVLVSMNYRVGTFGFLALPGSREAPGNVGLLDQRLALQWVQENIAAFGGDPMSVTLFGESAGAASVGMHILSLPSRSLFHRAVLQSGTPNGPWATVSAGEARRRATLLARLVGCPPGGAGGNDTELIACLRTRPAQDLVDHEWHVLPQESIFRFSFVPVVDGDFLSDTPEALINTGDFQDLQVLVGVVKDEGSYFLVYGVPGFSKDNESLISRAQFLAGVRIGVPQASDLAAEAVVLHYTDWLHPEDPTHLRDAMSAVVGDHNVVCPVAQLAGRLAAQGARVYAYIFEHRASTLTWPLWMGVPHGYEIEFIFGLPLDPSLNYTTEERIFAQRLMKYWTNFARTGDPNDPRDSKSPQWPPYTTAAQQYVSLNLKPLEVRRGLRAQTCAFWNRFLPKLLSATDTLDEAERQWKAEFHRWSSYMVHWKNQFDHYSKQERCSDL
Experimental: A 20% mouse brain homogenate was used, supplemented with 200 μM of acetylthiocholine as substrate, and the initial reaction kinetics were measured according to Riddles P W, Blakeley R L, Zerner B., “Reassessment of Ellman's reagent” Methods Enzymol.
The brain is removed from the animal (mouse), shock frozen in liquid nitrogen and stored at minus 80° C. until use. Before preparing the extract, the frozen brain is thawed on ice and the weight is determined. Ice cold buffer (130 mM NaCl, 5 mM KCl, 2.5 mM CaCl2, 1 mM MgCl2, 5 mM Glucose, 5 mM HEPES, pH 7.4) is added to the thawed mouse brain (1:4, weight to volume, resulting in a 20% brain homogenate). The tissue is then homogenized in a potter homogeniser on ice, moving the piston up and down 11 times at 240 rpm. The freshly prepared mouse brain homogenate is divided into aliquots.
A modified Ellmann's esterase test is used. Briefly the method relies on the cleavage of the substrate acetylthiocholine to acetate and thiocholine. […] The inhibition is expressed as percent of the non inhibited reaction according to following equation: […]

[1] = target: T2, a4β2 neuronal nicotinic acetylcholine receptor (Homo sapiens, UniProt P17787+P43681); test: Whole-cell patch clamp recording of allosteric potentiation in HEK-293 cells; format: cell-based
T2 construct: expressed in transfected cells; host or cells: HEK-293
Experimental: FIG. 4: Interaction of galantamine and pro-galantamine with a4β2 neuronal nicotinic acetylcholine receptor ectopically expressed in HEK-293 cells. The increase in response to acetylcholine in the presence of galantamine and Gln-1062, respectively, was determined by whole-cell patch clamp recording. Galantamine achieved a maximal enhancement of response of ˜40% whereas the pro-galantamine achieved a maximal enhancement of only ˜17%.
Investigation of the allosteric modulation effect of drug candidates on nicotinic acetylcholine receptors (nAChRs) expressed in HEK-293 cells by electrophysiology. Results shown as FIG. 4.
Single HEK-293 cells expressing either human α4β2, human α3β4, or chimeric chicken α7 (with mouse 5HT3) nAChR were plated on fibronectin-coated cover slips for 3 days before measurement. […] A programmable puller (Sutter, USA) was used to prepare a twin pair of ready for use pipettes. […] To evaluate an allosteric potentiating ligand (APL) effect of selected compounds on each subtype of nAChR, they were added to stimulating nicotine solutions at the following concentrations: 1, 5, 10, 50, 100, 500, 1,000, 5,000 and 10,000 nM, and solutions were applied to the cell surface during 500 ms pulses through the U-tube, and then corresponding currents, digitized to 10 kHz, were recorded for 10 s. […]

[2] = tested on: scopolamine-induced amnesia in mice; test: Reversal from scopolamine-induced amnesia in mice, T-maze alternation; format: in vivo, mouse; conditions: i.p.
Experimental: Scopolamine induces a memory deficit that can be measured by […] alternation in a T-maze trial. The cognition enhancing drugs were i.p. injected at several different doses together with scopolamine 20 min before a T-maze trial. Recovery was measured as a function of dose, and the EC50 was determined for each drug.
Analysis of variance (ANOVA) was performed on the result data.

[3] = cited from earlier work
[4] = unmodified drug; cited from earlier work

T2 sequence (P43681 29-627 limits assumed): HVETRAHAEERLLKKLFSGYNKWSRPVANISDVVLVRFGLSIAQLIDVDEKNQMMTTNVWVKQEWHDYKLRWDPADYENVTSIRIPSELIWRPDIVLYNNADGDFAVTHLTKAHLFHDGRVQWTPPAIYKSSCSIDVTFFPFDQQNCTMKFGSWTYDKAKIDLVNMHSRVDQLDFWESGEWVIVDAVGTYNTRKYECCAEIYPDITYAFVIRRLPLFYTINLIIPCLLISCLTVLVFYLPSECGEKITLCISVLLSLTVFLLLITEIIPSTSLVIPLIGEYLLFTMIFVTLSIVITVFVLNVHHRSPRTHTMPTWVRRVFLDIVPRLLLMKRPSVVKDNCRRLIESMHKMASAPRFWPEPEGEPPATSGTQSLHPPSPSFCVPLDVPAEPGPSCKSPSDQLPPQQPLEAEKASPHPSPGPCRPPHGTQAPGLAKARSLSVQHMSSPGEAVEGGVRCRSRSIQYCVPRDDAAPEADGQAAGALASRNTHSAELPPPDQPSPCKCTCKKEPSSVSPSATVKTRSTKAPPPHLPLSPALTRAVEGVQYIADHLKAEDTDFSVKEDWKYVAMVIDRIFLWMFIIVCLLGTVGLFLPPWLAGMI
T2 sequence (P17787 26-502): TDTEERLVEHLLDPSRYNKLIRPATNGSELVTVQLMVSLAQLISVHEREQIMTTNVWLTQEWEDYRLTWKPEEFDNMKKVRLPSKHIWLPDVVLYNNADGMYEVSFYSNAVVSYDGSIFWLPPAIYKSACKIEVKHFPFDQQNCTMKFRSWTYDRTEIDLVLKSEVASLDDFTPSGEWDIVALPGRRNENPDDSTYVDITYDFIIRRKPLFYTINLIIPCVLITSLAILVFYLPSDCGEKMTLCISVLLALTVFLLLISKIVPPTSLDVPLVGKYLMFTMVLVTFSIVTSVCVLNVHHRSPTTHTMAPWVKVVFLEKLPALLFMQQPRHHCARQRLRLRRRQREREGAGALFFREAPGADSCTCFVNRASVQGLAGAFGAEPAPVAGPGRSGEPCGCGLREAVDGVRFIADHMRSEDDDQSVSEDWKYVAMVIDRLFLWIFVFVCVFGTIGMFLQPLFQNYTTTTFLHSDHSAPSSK

SMILES: CCCCCC(=O)O[C@H]1C=C[C@@]23CCN(C)Cc4ccc(OC)c(c42)O[C@H]3C1 [GLN-0993]
Co (Brain), highest concentration achieved in mouse brain (in vivo): 2150 ng/mL | Kp (in vivo; mouse, iv, 3 mg/kg): 6.4

SMILES: C=C[C@@]12C=C[C@H](O)C[C@@H]1Oc1c(OC)ccc(CNC)c12 [10,11-Seco-11,12-dehydro-galantamine, (3R,4aS,9bS)-6-Methoxy-9-methylaminomethyl-3,4,4a,9b-tetrahydro-9b-vinyl-dibenzofuran-3-ol]
melting point: 127 to 129 °C

SMILES: COc1ccc2c3c1OC1C[C@@H](OC(=O)c4ccccc4)C=C[C@@]31CCN(C)C2 (stereo partly drawn) [GLN-1062, (4aS,6R,8aS)-4a,5,9,10,11,12-Hexahydro-3-methoxy-11-methyl-6H-benzofuro[3a,3,2-ef][2]benzazepin-6-ol, benzoate (ester)]
inhibition of brain cholinesterase (brain cholinesterase): little, if any cholinesterase inhibitory activity | maximal enhancement of response to acetylcholine [1]: ~17% | potency relative to galantamine in reversing scopolamine-induced amnesia [2]: approximately 4 times | Kp (in vivo; SAM, mouse): > 19 | Co (Brain), highest concentration achieved in mouse brain (in vivo): 4812 ng/mL | concentration of GLN-1062 in blood at start of curve (in vivo; mouse, 3 mg/kg, FIG. 5b): about 0.3 μg/g | Kp (in vivo; mouse, iv, 3 mg/kg): 19.3

SMILES: COc1ccc2c3c1O[C@H]1C[C@@H](O)C=C[C@@]31CCN(C)C2 [Galantamine]
tissue to plasma ratio (T/P), spleen ([3]; female rat): ~20 | tissue to plasma ratio (T/P), kidney ([3]; male and female rat): 10-15 | tissue to plasma ratio (T/P), salivary and adrenal gland ([3]; male and female rat): 7-14 | brain to plasma ratio (T/P) ([3]; rat): ~1.5 | tissue to plasma ratio (T/P), lung, liver, heart, skeletal muscle and testes ([3]; rat): 2-4 | maximal enhancement of response to acetylcholine [1]: ~40% | brain-to-plasma ratio [4]: ~1.3 | Co (Brain), highest concentration achieved in mouse brain (in vivo): 1741 ng/mL | Kp (in vivo; mouse, 3 mg/kg): ~1.3

Other lines, results leading:

Co (Brain), highest concentration achieved in mouse brain (in vivo): 1985 ng/mL | Kp (in vivo; mouse, iv, 3 mg/kg): 6.9
SMILES: CCC(=O)O[C@H]1C=C[C@@]23CCN(C)Cc4ccc(OC)c(c42)O[C@H]3C1 [GLN-0978]

Co (Brain), highest concentration achieved in mouse brain (in vivo): 4665 ng/mL | Kp (in vivo; mouse, iv, 3 mg/kg): 7.5
SMILES: CCC(C)C(=O)O[C@H]1C=C[C@@]23CCN(C)Cc4ccc(OC)c(c42)OC3C1 (stereo partly drawn) [GLN-1067]

Co (Brain), highest concentration achieved in mouse brain (in vivo): 3166 ng/mL | Kp (in vivo; mouse, iv, 3 mg/kg): 6.2
SMILES: COc1ccc2c3c1O[C@H]1C[C@@H](OC(=O)C(C)C)C=C[C@@]31CCN(C)C2 [GLN-0979]

Co (Brain), highest concentration achieved in mouse brain (in vivo): 1245 ng/mL | Kp (in vivo; mouse, iv, 3 mg/kg): 1.1
SMILES: COc1ccc2c3c1OC1C[C@@H](OC(=O)C4CC4)C=C[C@@]31CCN(C)C2 (stereo partly drawn) [GLN-1076]
